Data: patent EP0086590A1, “Antibacterial agents, their preparation and use” (priority 1982, dated 1983)
Converted amounts (≈) assume the structure as drawn. Where a name gives a salt, the structure may show the parent alone.

Tests used:
Enterobacter cloacae N1 = experiment: Antibacterial activity (mic); format: cell-based
Escherichia coli 0111 = experiment: Antibacterial activity (mic); format: cell-based
Escherichia coli JT39 R+ = experiment: Antibacterial activity (mic); format: cell-based
Escherichia coli ESS = experiment: Antibacterial activity (mic); format: cell-based
Klebsiella aerogenes A = experiment: Antibacterial activity (mic); format: cell-based
Proteus mirabilis 977 = experiment: Antibacterial activity (mic); format: cell-based
Proteus morganii 1580 = experiment: Antibacterial activity (mic); format: cell-based; settings: Morganella morganii
Proteus rettgeri WM16 = experiment: Antibacterial activity (mic); format: cell-based; settings: Providencia rettgeri
Pseudomonas aeruginosa A = experiment: Antibacterial activity (mic); format: cell-based
[1] = tested on: Pseudomonas aeruginosa Dalgleish; experiment: Antibacterial activity (mic); format: cell-based
Bacillus subtilis A = experiment: Antibacterial activity (mic); format: cell-based
[2] = tested on: Staphylococcus aureus Oxford; experiment: Antibacterial activity (mic); format: cell-based
[3] = tested on: Staphylococcus aureus Russell; experiment: Antibacterial activity (mic); format: cell-based
Streptococcus faecalis I = experiment: Antibacterial activity (mic); format: cell-based; settings: Enterococcus faecalis
[4] = tested on: Serratia marcescens NEU3974; experiment: Antibacterial activity (mic); format: cell-based
[5] = Effect of serum on antibacterial activity; format: cell-based
[6] = Mouse urinary recovery of antibacterial agent; format: in vivo; settings: urine, sc, 10 mg/kg s/c, parent antibacterial agent administered alone
Protocol: By way of comparison. the parent antibacterial agent of the compound of Example 2 (ie sodium salt of [-2-acetamido- ethenylthio]-6-(I-hydroxysulphonyloxyethyl)-7-oxo-l-azabicyclo[3.2.0]hept-2-ene-2-carboxylic acid) was administered together with the corresponding dipeptidase inhibitor (ie 2-isovaleramidobut-2-ene) in a 1:1 relationship. […] However, since the compound of Example 2 liberates an approximate ratio of 2:1 by weight of antibacterial agent to inhibitor, the compound of Example 2 makes much more efficient use of the dipeptidase inhibitor.

Escherichia coli E8 = experiment: Antibacterial activity (mic); format: cell-based
Escherichia coli E96 R+ = experiment: Antibacterial activity (mic); format: cell-based
Proteus mirabilis 13 = experiment: Antibacterial activity (mic); format: cell-based
[7] = tested on: Pseudomonas aeruginosa 11; experiment: Antibacterial activity (mic); format: cell-based
Serratia marcescens US20 = experiment: Antibacterial activity (mic); format: cell-based

| dose excreted [6] | Structure (SMILES) | MIC (Enterobacter cloacae N1) | MIC (Escherichia coli 0111) | MIC (Escherichia coli JT39 R+) | MIC (Escherichia coli ESS) | MIC (Klebsiella aerogenes A) | MIC (Proteus mirabilis 977) | MIC (Proteus morganii 1580) | MIC (Proteus rettgeri WM16) | MIC (Pseudomonas aeruginosa A) | MIC [1] | MIC (Bacillus subtilis A) | MIC [2] | MIC [3] | MIC (Streptococcus faecalis I) | Effect of serum on activity [5] | MIC (Escherichia coli E8) | MIC (Escherichia coli E96 R+) | MIC [7] | MIC (Serratia marcescens US20) | further results |
| --- | --- | --- | --- | --- | --- | --- | --- | --- | --- | --- | --- | --- | --- | --- | --- | --- | --- | --- | --- | --- | --- |
| – | C/C=C(\NC(=O)CC(C)C)C(=O)OCOC(=O)C1=C(Sc2ncccn2)C[C@@H]2[C@@H]([C@@H](C)O)C(=O)N12 (racemic) [Example 3, 2-Isovaleramidobut-2Z-enoyloxymethyl 5(R,S),6(S,R)-3-(pyrimidin-2-ylthio)-6-[l(R,S)-hydroxyethyl]-7-oxo-1-azabicyclo[3.2.0]hept-2-ene-2-carboxylate] | 25 µg/mL (≈ 49.5 µM) | 6.2 µg/mL (≈ 12.3 µM) | 3.1 µg/mL (≈ 6.14 µM) | 1.6 µg/mL (≈ 3.17 µM) | 3.1 µg/mL (≈ 6.14 µM) | 12.5 µg/mL (≈ 24.8 µM) | 25 µg/mL (≈ 49.5 µM) | 25 µg/mL (≈ 49.5 µM) | > 100 µg/mL | > 100 µg/mL | 0.8 µg/mL (≈ 1.59 µM) | 0.8 µg/mL (≈ 1.59 µM) | 0.8 µg/mL (≈ 1.59 µM) | 50 µg/mL (≈ 99.1 µM) | 10-20 fold | – | – | – | – | MIC [4]: 100 µg/mL (≈ 198 µM) |
| 0.3% | CC(=O)NC=CSC1=C(C(=O)O)N2C(=O)C(C(C)O)C2C1 [(A), Sodium (5R,6R)-3-[(E)-2-acetamidoethenylthio]-6-[(S)-1-hydroxyethyl]-7-axo-1-azabicyclo[3.2.0]hept-2-ene-2-carboxylate] | – | – | – | – | – | – | – | – | – | – | – | – | – | – | – | – | – | – | – | – |
| 1.5% | CC(=O)NC=CSC1=C(C(=O)O)N2C(=O)C(C(C)OS(=O)(=O)O)C2C1 (stereo not drawn) [(B), sodium salt of [-2-acetamido-ethenylthio]-6-(I-hydroxysulphonyloxyethyl)-7-oxo-l-azabicyclo[3.2.0]hept-2-ene-2-carboxylic acid] | – | – | – | – | – | – | – | – | – | – | – | – | – | – | – | – | – | – | – | – |
| – | C/C=C(\NC(=O)CC(C)C)C(=O)OCOC(=O)C1=C(S/C=C/NC(C)=O)C[C@@H]2[C@H]([C@H](C)O)C(=O)N12 [Example 1, 2-Isovaleramidobut-2Z-enoyloxymethyl (5R,6R)-3-[(E)-2-acetamidoethenylthio]-6-[(S)-1-hydroxyethyl]-7-oxo-1-azabicyclo[3.2.0]hept-2-ene-2-carboxylate] | 6.2 µg/mL (≈ 12.2 µM) | 0.8 µg/mL (≈ 1.57 µM) | 25 µg/mL (≈ 49.1 µM) | 0.2 µg/mL (≈ 0.392 µM) | 6.2 µg/mL (≈ 12.2 µM) | 3.1 µg/mL (≈ 6.08 µM) | 25 µg/mL (≈ 49.1 µM) | 6.2 µg/mL (≈ 12.2 µM) | > 100 µg/mL | 100 µg/mL (≈ 196 µM) | 0.4 µg/mL (≈ 0.785 µM) | 0.4 µg/mL (≈ 0.785 µM) | 0.8 µg/mL (≈ 1.57 µM) | 3.1 µg/mL (≈ 6.08 µM) | 2-8 fold | 0.8 µg/mL (≈ 1.57 µM) | 100 µg/mL (≈ 196 µM) | 100 µg/mL (≈ 196 µM) | 6.2 µg/mL (≈ 12.2 µM) | MIC (Proteus mirabilis 13): 0.8 µg/mL (≈ 1.57 µM) |
| – | CC=C(NC(=O)CC(C)C)C(=O)OCOC(=O)C1=C(SC=CNC(C)=O)CC2C(C(C)OS(=O)(=O)O)C(=O)N12 [Example 2, Sodium salt of 2-Isovaleramidobut-2Z-en-oyloxymethyl (5R,6R)-3-[(E)-2-acetamidoethenylthio]-6-[(S)-l-hydroxysulphonyloxyethyl]-7-oxo-l-azabicyclo[3.2.0]hept 2-ene-2-carboxylate] | 3.1 µg/mL | 3.1 µg/mL | 1.6 µg/mL | 1.6 µg/mL | 0.4 µg/mL | 3.1 µg/mL | – | 0.8 µg/mL | 100 µg/mL | 100 µg/mL | 1.6 µg/mL | 1.6 µg/mL | 3.1 µg/mL | 50 µg/mL | 2-4 fold | 6.2 µg/mL | 12.5 µg/mL | 100 µg/mL | 6.2 µg/mL | – |
